Measured values published in patent US20080293801A1, “Solid Amorphous Dispersions of An Mtp Inhibitor For Treatment of Obesity” (PFizer Inc., priority 2003, published 2008).
Several values for one entry are separate records, joined by “and”; a condition that tells them apart may be missing. Equal entries are not always repeated. Marks after values point to notes of the source that are not given here.

How the values were obtained:
[1] = Solubility of the lowest energy crystalline form of Drug A in water; assay type: physicochemical; settings: lowest energy crystalline form presently known
Procedure: Drug A is an MTP inhibitor intended for the treatment of obesity. The solubility of the lowest energy crystalline form of Drug A presently known in water is less than 0.6 μg/ml. Drug A is nonionizable, and has a cLog P of about 7.8. These characteristics contribute to its water insoluble nature.

[2] = In vitro dissolution test in model fasted duodenal solution (MFDS); assay type: physicochemical; settings: MTC 500 μg/mL; for AUC / Drug A Concentration: MFDS pH 6.5, 37° C.
Procedure: Samples of Example 1 and Control C1 were added to respective microcentrifuge tubes in duplicate. For these tests, a sufficient amount of material was added so that the maximum theoretical concentration of drug (MTC) would have been 500 μg/mL, if all of the drug had dissolved. The tubes were placed in a 37° C. temperature-controlled chamber, and 1.8 mL model fasted duodenal solution, or “MFDS” was added to each respective tube. The MFDS consisted of 1.8 mL PBS containing 0.5 wt % sodium taurocholic acid and 1-palmitoyl-2-oleyl-sn-glycero-3-phosphocholine (NaTC/POPC, with a 4/1 weight ratio) at pH 6.5 and adjusted to 290 mOsm/kg with NaCl:KCl (20.4:1 wt/wt). The samples were quickly mixed using a vortex mixer for about 60 seconds. The samples were centrifuged at 13,000 G at 37° C. for 1 minute. The resulting supernatant solution was then sampled and diluted 1:6 (by volume) with methanol and then analyzed by high-performance liquid chromatography (HPLC) using a Phenomenex Luna, phenyl-hexyl 5 μm column with a mobile phase consisting of 70:30 (vol:vol) acetonitrile: water at a flow rate of 1 ml/min. Drug concentration was measured using UV absorbance at 241 nm. The contents of each respective tube were mixed on the vortex mixer and allowed to stand undisturbed at 37° C. until the next sample was taken. […]
The concentrations of drug obtained in these samples were used to determine the maximum dissolved drug concentration at 90 minutes (MDC90) and the area under the dissolved drug concentration versus time curve (AUC90) during the initial ninety minutes.
For each test, dispersions were added to microcentrifuge tubes in duplicate. For these tests, a sufficient amount of material was added so that the maximum theoretical concentration (MTC) would have been 500 μg/mL, if all of the drug had dissolved. The tubes were placed in a 37° C. temperature-controlled chamber, and 1.8 mL PBS containing 0.5 wt % sodium taurocholic acid and 1-palmitoyl-2-oleyl-sn-glycero-3-phosphocholine (NaTC/POPC, with a 4/1 weight ratio) at pH 6.5 and 290 mOsm/kg (model fasted duodenal solution, “MFDS”) was added to each respective tube. The samples were quickly mixed using a vortex mixer for about 60 seconds. The samples were centrifuged at 13,000 G at 37° C. for 1 minute. The resulting supernatant solution was then sampled and diluted 1:6 (by volume) with methanol and then analyzed by HPLC as described above. The contents of each respective tube were mixed on the vortex mixer and allowed to stand undisturbed at 37° C. until the next sample was taken. […]
The concentrations of drug obtained in these samples were used to determine the MDC90 and the AUC90 during the initial ninety minutes.

solubility [1] [µg/mL] | AUC90 ([2]; area under dissolved drug concentration vs time curve, initial 90 minutes, MFDS) | MDC90 ([2]; maximum dissolved drug concentration, initial 90 minutes, MFDS) | AUC ([2]; time 0 min) [µg·min/mL] | Drug A Concentration ([2]; time 0 min) [µg/mL] | AUC ([2]; time 4 min) [µg·min/mL] | Drug A Concentration ([2]; time 4 min) | Drug A Concentration ([2]; time 10 min) | Drug A Concentration ([2]; time 20 min) | AUC ([2]; time 40 min) | Drug A Concentration ([2]; time 40 min) | AUC ([2]; time 90 min) | AUC ([2]; time 1200 min) [µg·min/mL] | Drug A Concentration ([2]; time 1200 min) [µg/mL] | SMILES
< 0.6 | – | – | – | – | – | – | – | – | – | – | – | – | – | CN(Cc1ccccc1)C(=O)[C@@H](NC(=O)c1cc2cc(NC(=O)c3ccccc3-c3ccc(C(F)(F)F)cc3)ccc2n1C)c1ccccc1 [Drug A, (S)—N-{2-[benzyl(methyl)amino]-2-oxo-1-phenylethyl}-1-methyl-5-[4′-(trifluoromethyl)[1,1′-biphenyl]-2-carboxamido]-1H-indole-2-carboxamide]
– | 170 µg·min/mL and 200 µg·min/mL | 3.1 µg/mL and 3 µg/mL | 0 | 0 | 0 | 0.0* μg/mL and 0 μg/mL | 2.6 µg/mL and 3 µg/mL | 3.1 µg/mL and 3 µg/mL | 93 µg·min/mL and 100 µg·min/mL | 2.6 µg/mL and 3 µg/mL | 170 µg·min/mL and 200 µg·min/mL | 800 | 0.8 | CN(Cc1ccccc1)C(=O)[C@@H](NC(=O)c1cc2cc(NC(=O)c3ccccc3-c3ccc(C(F)(F)F)cc3)ccc2n1C)c1ccccc1 [Example C1]
